Experimental data taken from US12319655B2, “RAF kinase inhibitors and methods of use thereof” (Deciphera Pharmaceuticals, LLC, priority 2021, dated 2025).

Key:
Miapaca-2 cells = assay: MiaPaca-2 Combination Cell proliferation Assay (1) with cobimetinib; type: cell-based; settings: MiaPaca-2 cell proliferation, read-out: MiaPaca-2 Combo (1) IC50
Protocol: MiaPaca-2 Combination Cell proliferation Assay (1)
Miapaca-2 cells (catalog #CRL-1420) are obtained from the American Type Culture Collect (ATCC, Manassas, VA). Briefly, cells were grown in DMEM supplemented with 10% characterized fetal bovine serum (Invitrogen, Carlsbad, CA), 2.5% New Zealand sourced horse serum and 1% Penicillin/Streptomycin/L-Glutamine at 37° C., 5% CO2, and 95% humidity. Cells are expanded until reaching 70-95% confluency at which point they are subcultured or harvested for assay use. A serial dilution of test compound was dispensed into multiple 96-well black clear bottom plates in triplicate. A serial dilution of complete growth medium containing cobimetinib was prepared at twice the final concentration and 100 μL was dispensed across the test compound titration in triplicate. Three thousand cells are added per well in 100 μL complete growth medium in each 96-well plate. Plates are incubated for 67-72 hours at 37° C., 5% CO2, and 95% humidity. At the end of the incubation, 40 μL of a 440 μM solution of resazurin (Sigma, St. Louis, MO) in PBS is added to each well of the plate and plates are incubated for an additional 5-7 hours at 37° C., 5% CO2, and 95% humidity. Plates are read on a Synergy2 or equivalent reader (Biotek, Winooski VT) using an excitation of 540 nm and an emission of 600 nm. Drug synergy was assessed via BLISS analysis in the Combenefit software (Cancer Research UK Cambridge Institute, Cambridge, UK). Data is analyzed using Prism software (Graphpad, San Diego, CA) to calculate IC50 values. Shifts in test compound IC50 values are reported from top-constrained combination therapy curves.

WM3629 cells = assay: WM3629 Cell Proliferation Assay (1); type: cell-based
Protocol: WM3629 Cell Proliferation Assay (1)
WM3629 cells (#WM3629-01-0001) are obtained from Rockland Immunochemicals Inc (Gilbertsville, PA). Briefly, cells were grown in MCDB 153 medium (Sigma, #M7403, St. Louis, MO) supplemented with 20% Leibovitz's L-15 (ThermoFisher #11415-064, Waltham, MA), 2% heat inactivated fetal bovine serum (ThermoFisher, #A3840001, Waltham, MA), 5 μg/mL Insulin (Bovine Pancreas) (Sigma, #10516, St. Louis, MO), 1.68 mM Calcium Chloride (Sigma, #C-34006, St. Louis, MO) and 1% Penicillin/Streptomycin/L-Glutamine (ThermoFisher #10378016, Waltham, MA) at 37° C., 5% CO2, and 95% humidity. Cells are expanded until reaching 70-95% confluency at which point they are subcultured or harvested for assay use. A serial dilution of test compound is dispensed into a 96-well black clear bottom plate in triplicate. Four thousand five hundred cells are added per well in 200 μL complete growth medium in the 96-well plate. Plates are incubated for 67-72 hours at 37° C., 5% CO2, and 95% humidity. At the end of the incubation, 40 μL of a 440 μM solution of resazurin (Sigma, #199303, St. Louis, MO) in PBS is added to each well of the plate and plates are incubated for an additional 6-7 hours at 37° C., 5% CO2, and 95% humidity. Plates are read on a Synergy2 or equivalent reader (Biotek, Winooski VT) using an excitation of 540 nm and an emission of 600 nm. Data is analyzed using Prism software (GraphPad, San Diego, CA) to calculate IC50 values.

Compound | IC50 (Miapaca-2 cells) [nM] | IC50 (WM3629 cells) [nM]
CC(=O)Nc1cc(-c2cc(-c3cc(NC(=O)c4ccnc(C(F)(F)F)c4)c(F)cc3C)cc(C)n2)ccn1 [Example 4] | ≤ 100 | 
Cc1cc(F)c(NC(=O)c2ccnc(C(F)(F)F)c2)cc1-c1ccnc(-c2ccnc(NC(=O)CN(C)C)c2)c1 [Example 7] | 100 to 500 | 
CC(=O)Nc1cc(-c2ccnc(-c3cc(NC(=O)c4ccnc(C(C)(C)C#N)c4)ccc3C)n2)ccn1 [Example 103] | ≤ 100 | 
Cc1cc(F)c(NC(=O)c2ccnc(C(C)(C)C#N)c2)cc1-c1ccnc(-c2ccnc(NC=O)c2)c1 [Example 104] | ≤ 100 | 
Cc1ccc(NC(=O)c2ccnc(C(C)(C)C#N)c2)cc1-c1cncc(-c2ccnc(NC(=O)C3CC3)c2)n1 [Example 112] | ≤ 100 | 
Cc1ccc(NC(=O)c2ccnc(C(F)F)c2)cc1-c1cncc(-c2ccnc(NC(=O)C3CC3)c2)n1 [Example 117] | ≤ 100 | 
CC(=O)Nc1cc(-c2nccc(-c3cc(NC(=O)c4ccnc(C(C)(C)C#N)c4)ccc3C)n2)ccn1 [Example 118] | ≤ 100 | 
CC(=O)Nc1cc(-c2cncc(-c3cc(NC(=O)c4cc(C(F)(F)F)ccn4)ccc3C)n2)ccn1 [Example 124] | ≤ 100 | 
CNC(=O)c1cc(-c2cc(-c3cc(NC(=O)c4cccc(C(C)(C)C#N)c4)ccc3C)ccn2)ccn1 [Example 127] | ≤ 100 | 
Cc1ccc(NC(=O)c2ccnc(C(C)(C)C#N)c2)cc1-c1cccc(-c2ccnc3[nH]ncc23)c1 [Example 134] | 100 to 500 | 
CNC(=O)c1cc(-c2cncc(-c3cc(NC(=O)c4ccnc(C5(C#N)CC5)c4)ccc3C)n2)ccn1 [Example 138] | 100 to 500 | 
CNC(=O)c1cc(-c2cc(-c3cc(NC(=O)c4ccnc(C(C)(C)C#N)c4)cnc3C)ccn2)ccn1 [Example 158] | ≤ 100 | 
CNc1cc(-c2cccc(-c3cc(NC(=O)c4ccnc(C(C)(C)C#N)c4)ccc3C)c2)ncn1 [Example 160] | 100 to 500 | 
Cc1ncc(NC(=O)c2ccnc(C(C)(C)C#N)c2)cc1-c1cccc(-c2ccnc(NC(=O)C3CC3)c2)n1 [Example 172] | ≤ 100 | 
CNC(=O)c1cc(-c2nccc(-c3cc(NC(=O)c4ccnc(C5(C#N)CC5)c4)ccc3C)n2)ccn1 [Example 175] | ≤ 100 | 
CNC(=O)c1cc(-c2cc(-c3cc(NC(=O)c4ccnc(C5(C#N)CC5)c4)ccc3C)ncn2)ccn1 [Example 178] |  | ≤ 100
Cc1ccc(NC(=O)c2ccnc(C3(C#N)CC3)c2)cc1-c1ccnc(-c2ccnc(NC(=O)C3CC3)c2)n1 [Example 180] |  | ≤ 100
Cc1ncc(NC(=O)c2ccnc(C(C)(C)C#N)c2)cc1-c1cccc(-c2cc(NC(=O)C3CC3)ncn2)c1 [Example 181] | ≤ 100 | ≤ 100
Cc1ccc(NC(=O)c2ccnc(C3CC3)c2)cc1-c1cncc(-c2ccnc(NC(=O)C3CC3)c2)n1 [Example 184] | ≤ 100 | 
